{"source": "patent US20030066102A1", "about": "“Plant gene for p-hydroxyphenylpyruvate dioxygenase” (priority 1996, published 2003)", "molecules": {"B1": {"name": "PDO-B: full-length Arabidopsis thaliana p-hydroxyphenylpyruvate dioxygenase produced from plasmid pE24PDO-B (protein, UniProt P93836 1-445, looked up)", "chain": "MGHQNAAVSENQNHDDGAASSPGFKLVGFSKFVRKNPKSDKFKVKRFHHIEFWCGDATNVARRFSWGLGMRFSAKSDLSTGNMVHASYLLTSGDLRFLFTAPYSPSLSAGEIKPTTTASIPSFDHGSCRSFFSSHGLGVRAVAIEVEDAESAFSISVANGAIPSSPPIVLNEAVTIAEVKLYGDVVLRYVSYKAEDTEKSEFLPGFERVEDASSFPLDYGIRRLDHAVGNVPELGPALTYVAGFTGFHQFAEFTADDVGTAESGLNSAVLASNDEMVLLPINEPVHGTKRKSQIQTYLEHNEGAGLQHLALMSEDIFRTLREMRKRSSIGGFDFMPSPPPTYYQNLKKRVGDVLSDDQIKECEELGILVDRDDQGTLLQIFTKPLGDRPTIFIEIIQRVGCMMKDEEGKAYQSGGCGGFGKGNFSELFKSIEEYEKTLEAKQLVG", "modifications": "full-length"}}, "key": {"[1]": {"target": "T1, Plant p-Hydroxyphenylpyruvate Dioxygenase (Arabidopsis enzyme overexpressed in E. coli) (Arabidopsis thaliana, UniProt P93836)", "T1 construct": "The first 11 cycles identified […]; initiator Met (ATG start codon put in front of Ser30 by oligos CAM32/CAM33) (N, cleaved yes); made in house; host or cells: E. coli BL21(DE3) carrying pE24CP1 (pET24c(+) backbone), IPTG-induced; cell extract", "T1 sequence (P93836 30-445)": "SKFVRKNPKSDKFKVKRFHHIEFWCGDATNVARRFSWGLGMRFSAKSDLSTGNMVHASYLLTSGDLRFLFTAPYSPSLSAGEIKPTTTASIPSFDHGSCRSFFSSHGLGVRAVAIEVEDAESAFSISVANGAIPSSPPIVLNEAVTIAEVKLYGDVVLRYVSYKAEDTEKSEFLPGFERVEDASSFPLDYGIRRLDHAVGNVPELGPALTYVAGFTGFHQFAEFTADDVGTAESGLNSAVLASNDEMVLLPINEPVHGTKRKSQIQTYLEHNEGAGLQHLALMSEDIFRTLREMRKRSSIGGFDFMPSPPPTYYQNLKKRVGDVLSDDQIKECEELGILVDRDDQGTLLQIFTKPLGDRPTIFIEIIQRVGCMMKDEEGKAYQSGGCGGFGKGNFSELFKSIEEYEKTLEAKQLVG", "experiment": "14CO2 release assay from 14C-p-hydroxyphenylpyruvate with overexpressed protein", "assay_type": "biochemical", "experimental": "Cell cultures with different plasmid constructs were extracted as described above and assayed by measuring the formation of ^14Co2 from [1-^14C]-p-hydroxyphenylpyruvate or ^14CO2 and ^14C-homogentisate from [U-^14C]-p-hydroxyphenylpyruvate (Lindblad, B., (1971) Clin. Chim. Acta 34:113-121; and Lindstedt, S. and Odelhog, B., (1987) Methods in Enzymology 142:143-148). The labeled substrate was prepared from [1-^14C]-L-tyrosine (55 mCi/mmol; American Radiolabeled Chemicals, Inc., St. Louis, Mo.) or [U-^14C]-L-tyrosine (498 mCi/mmol; DuPont NEN, Boston, Mass.). […]\nThe assay was performed in 14 mL culture tubes capped with serum stoppers through which a polypropylene well containing 200 μL of 1 N KOH was suspended. […] Six mL of Formula-989 scintillation fluid (Packard Insturments, Meriden, Conn.) was added to the vials and the ^14C radioactivity was determined by scintillation counting.\nThe enzymatic activity of the overexpressed protein is inhibited by two herbicides known to inhibit plant p-hydroxyphenylpyruvate dioxygenase: Sulcotrione (2-(2-chloro-4-methanesulfonylbenzoyl)-1,3-cyclohexanedione); and Isoxaflutole (5-cyclopropylisoxazol-4-yl 2-mesyl-4-trifluoromethylphenyl ketone). […] The I50 values (concentration inhibiting the enzyme 50%) were calculated based on the percent inhibition observed over several concentrations of the inhibitor."}, "[2]": {"target": "T1, Plant p-Hydroxyphenylpyruvate Dioxygenase (Arabidopsis enzyme overexpressed in E. coli)", "experiment": "continuous spectrophotometric enol borate-tautomerase assay with overexpressed protein", "assay_type": "biochemical", "experimental": "The overexpressed protein was also assayed spectrophotometrically at ambient temperature using the enol borate-tautomerase assay (Lin, E. C. C. et al., (1958) J. Biol. Chem. 233:668-673). The assay buffer contained 0.4 M borate (adjusted to pH 7.2 with 0.2 M sodium borate), 4 mM ascorbate, 2.5 mM EDTA, 40 μM p-hydroxyphenylpyruvate, and 0.5 units of tautomerase (Sigma T-6004) per 10 mL buffer. The reaction mix was used when the tautomerization of the substrate was complete (when absorbance at 308 nm had stabilized). The assay was initiated by adding 40 μL of the cell extracts to 960 μL of the assay buffer, and the reaction was followed by measuring the decrease in absorbance at 308 nm.\nThe enzymatic activity of the overexpressed protein is inhibited by two herbicides known to inhibit plant p-hydroxyphenylpyruvate dioxygenase: Sulcotrione (2-(2-chloro-4-methanesulfonylbenzoyl)-1,3-cyclohexanedione); and Isoxaflutole (5-cyclopropylisoxazol-4-yl 2-mesyl-4-trifluoromethylphenyl ketone). These two compounds were tested against the overexpressed protein using both the ^14CO2 and the continuous spectrophotometric enol borate-tautomerase assays. Both compounds were added to the assay buffers in 10 μL of acetone or dimethyl sulfoxide. The I50 values (concentration inhibiting the enzyme 50%) were calculated based on the percent inhibition observed over several concentrations of the inhibitor."}, "[3]": {"experiment": "storage stability of purified enzyme constructs, activity by tautomerase coupled spectrophotometric assay", "assay_type": "physicochemical, Arabidopsis thaliana", "settings": "1 mg/mL in 20 mM bis tris-propane buffer pH 7.2, 5 mM ascorbate, 1 mM reduced glutathione, 0.1 mM ferrous ammonium sulfate, stored at 4 °C", "description": "Two different constructs for Arabidopsis thaliana p-hydroxyphenyl-pyruvate dioxygenase, one containing the full-length sequence, PDO-B as described in Example 5 and produced from plasmid pE24PDO-B, and one containing the truncated sequence lacking the putative chloroplast leader sequence, PDO-A as produced from plasmid pE24CP1, were both purified to the same extent using a Pharmacia phenyl Sepharose hydrophobic interaction column followed by gel filtration chromatography on Pharmacia Sephacryl 300. The two proteins were diluted to 1 mg/mL in 20 mM bis tris-propane buffer, pH 7.2 containing 5 mM ascorbate, 1 mM reduced glutathione and 0.1mM ferrous ammonium sulfate and stored in a refrigerator at 4 ° C. for up to 10 days. Aliquots were removed at various times and assayed for activity using the tautomerase coupled spectrophotometric assay. […] In addition, the activity of the full length enzyme could be restored by incubation with iron and reducing agent, reduced glutathione or ascorbate, or by dialysis against buffer containing iron and reducing agent. In contrast, the activity of the truncated enzyme could not be restored by incubation with or dialysis against buffer containing iron and reducing agent."}}}
{"molecule": "CS(=O)(=O)c1cc(C(F)(F)F)ccc1C(=O)c1cnoc1C1CC1", "note": "[isoxaflutole, 5-cyclopropylisoxazol-4-yl 2-mesyl-4-trifluoromethylphenyl ketone]", "values": [{"measurement": "IC50", "setting": "[1]; concentration inhibiting the enzyme 50%, inhibitor added in 10 μL acetone or dimethyl sulfoxide, read-out: I50 value derived from 14CO2 assay", "result": 409, "unit": "nM"}, {"measurement": "IC50", "setting": "[2]; concentration inhibiting the enzyme 50%, absorbance at 308 nm, read-out: I50 value derived from spectrophotometric assay", "result": 1040, "unit": "nM"}]}
{"molecule": "CS(=O)(=O)c1ccc(C(=O)C2C(=O)CCCC2=O)c(Cl)c1", "note": "[sulcotrione, 2-(2-chloro-4-methanesulfonylbenzoyl)-1,3-cyclohexanedione]", "values": [{"measurement": "IC50", "setting": "[1]", "result": 43, "unit": "nM"}, {"measurement": "IC50", "setting": "[2]", "result": 44, "unit": "nM"}]}
{"molecule": "B1", "values": [{"measurement": "half-life for the activity", "setting": "[3]", "result": 96, "unit": "h"}]}
